Legend:
[1] = target: T1, glutathione-S-transferase (GST) tagged LXRalpha LBD (ligand binding domain) (Homo sapiens, UniProt Q13133); assay: LanthaScreen TR-FRET Liver X Receptor Coactivator Assay, LXR alpha-LBD; type: biochemical; settings: for Emax: read-out: LXR alpha activity at max dose (%) (Emax); for EC50 / LXR alpha IP (nM): potency (Inflection Point) of co-activator recruitment, TR-FRET; for EC50: read-out: LXR alpha IP
T1 construct: purchased Invitrogen pv4655
T1 sequence (Q13133 209-447 limits assumed): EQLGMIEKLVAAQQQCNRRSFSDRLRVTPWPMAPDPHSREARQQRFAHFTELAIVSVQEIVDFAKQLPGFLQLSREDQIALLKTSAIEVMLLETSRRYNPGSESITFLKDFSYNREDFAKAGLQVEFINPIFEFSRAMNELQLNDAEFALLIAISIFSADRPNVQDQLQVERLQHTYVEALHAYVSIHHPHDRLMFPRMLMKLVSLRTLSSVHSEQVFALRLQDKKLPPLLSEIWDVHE
Summary of the method: (§1)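 Test ligands were combined with the receptor LBD, after which terbium-labelled anti-GST antibody and a fluorescein-tagged coactivator peptide were introduced together. Plates sat at room temperature, then time-resolved FRET was measured.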

[2] = target: T2, glutathione-S-transferase (GST) tagged LXRbeta LBD (ligand binding domain) (Homo sapiens, UniProt P55055); assay: LanthaScreen TR-FRET Liver X Receptor Coactivator Assay, LXR beta-LBD; type: biochemical; settings: for Emax: read-out: LXR beta activity at max dose (%) (Emax); for EC50: potency (Inflection Point) of co-activator recruitment, TR-FRET, read-out: LXR beta IP
T2 construct: purchased Invitrogen pv4658.pps
T2 sequence (P55055 222-460 limits assumed): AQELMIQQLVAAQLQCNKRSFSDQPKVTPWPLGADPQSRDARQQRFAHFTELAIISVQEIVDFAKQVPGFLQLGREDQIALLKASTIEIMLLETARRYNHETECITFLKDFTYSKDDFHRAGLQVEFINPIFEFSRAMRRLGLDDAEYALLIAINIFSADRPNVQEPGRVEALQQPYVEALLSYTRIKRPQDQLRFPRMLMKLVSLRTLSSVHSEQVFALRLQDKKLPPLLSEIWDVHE
Summary of the method: as §1

[3] = efficacy in relation to reference dual agonist T1317

Row | Emax [1, 3] | EC50 [1] | Emax [2, 3] | EC50 [2] | LXR alpha IP (nM) [1] | LXR alpha activity at max dose (%) (Emax) [1, 3] | LXR beta activity at max dose (%) (Emax) [2, 3] | Compound
1 | 64% | 1.28 µM | 83% | 0.106 µM |  |  |  | CN(C)C(=O)c1ccc(-c2ccc(N3CCN(C(=O)c4c(F)cccc4C(F)(F)F)CC3)c(Cl)c2)cc1Cl [Example 4-7, 3,3′-dichloro-4′-(4-{[2-fluoro-6-(trifluoromethyl)phenyl]carbonyl}piperazin-1-yl)-N,N-dimethylbiphenyl-4-carboxamide]
2 | 24% |  | 93% | 2.33 µM | No IP |  |  | CN(C)C(=O)c1ccc(-c2ccc(N3CCN(C(=O)c4ccccc4C#N)CC3)cc2)cc1Cl [Example 4-2, 3-chloro-4′-{4-[(2-cyanophenyl)carbonyl]piperazin-1-yl}-N,N-dimethylbiphenyl-4-carboxamide]
3 | 38% | 10.5 µM | 101% | 2.82 µM |  |  |  | CN(C)C(=O)c1ccc(-c2ccc(N3CCN(S(=O)(=O)c4c(Cl)cccc4Cl)CC3)c(Cl)c2)cc1Cl [Example 4-8, 3,3′-dichloro-4′-{4-[(2,6-dichlorophenyl)sulfonyl]piperazin-1-yl}-N,N-dimethylbiphenyl-4-carboxamide]
4 | 52% | 4.83 µM | 78% | 0.703 µM |  |  |  | COc1ccc2nc(CCN(C)C(=O)c3ccc(-c4cnc(N5CCN(C(=O)OC(C)(C)C)CC5)c(C#N)c4)cc3Cl)[nH]c2c1 [Example 5-33, tert-butyl 4-[5-(3-chloro-4-{[2-(6-methoxy-1H-benzimidazol-2-yl)ethyl](methyl)carbamoyl}phenyl)-3-cyanopyridin-2-yl]piperazine-1-carboxylate]
5 | 23% | 6.84 µM | 77% | 0.031 µM |  |  |  | CN(C)C(=O)c1ccc(-c2cnc(N3CCN(S(=O)(=O)c4cccs4)CC3)c(C#N)c2)cc1Cl [Example 1-6, 2-chloro-4-{5-cyano-6-[4-(thiophen-2-ylsulfonyl)piperazin-1-yl]pyridin-3-yl}-N,N-dimethylbenzamide]
6 | 48% | 25.9 µM | 74% | 4.27 µM |  |  |  | CN(CCc1ccccc1)C(=O)c1ccc(-c2cnc(N3CCN(C(=O)OC(C)(C)C)CC3)c(C#N)c2)cc1Cl [Example 5-26, tert-butyl 4-(5-{3-chloro-4-[methyl(2-phenylethyl)carbamoyl]phenyl}-3-cyanopyridin-2-yl)piperazine-1-carboxylate]
7 | 48% | 1.35 µM | 61% | 0.055 µM |  |  |  | CN(C)C(=O)c1ccc(-c2cnc(N3CCN(C(=O)OC(C)(C)C)CC3)c(Cl)c2)cc1Cl [Example 9-1, tert-butyl 4-(3-chloro-5-(3-chloro-4-(dimethylcarbamoyl)phenyl)pyridin-2-yl)piperazine-1-carboxylate]
8 | 42% | 16.6 µM | 99% | 0.245 µM |  |  |  | CN(C)C(=O)c1ccc(-c2cnc(N3CCN(C(=O)C(=O)C(F)(F)F)CC3)c(C#N)c2)cc1Cl [Example 2-9, 2-chloro-4-{5-cyano-6-[4-(3,3,3-trifluoro-2-oxopropanoyl)piperazin-1-yl]pyridin-3-yl}-N,N-dimethylbenzamide]
9 | 76% | 33.7 µM | 82% | 0.176 µM |  |  |  | CNC(=O)c1ccc(-c2cnc(N3CCN(C(=O)OC(C)(C)C)CC3)c(C#N)c2)cc1Cl [Example 5-3, tert-butyl 4-{5-[3-chloro-4-(methylcarbamoyl)phenyl]-3-cyanopyridin-2-yl}piperazine-1-carboxylate]
10 | 43% | 19.5 µM | 86% | 0.437 µM |  |  |  | CC(C)S(=O)(=O)N1CCN(c2ncc(-c3ccc(C(=O)N(C)C)c(Cl)c3)cc2C#N)CC1 [Example 1-15, 2-chloro-4-(5-cyano-6-{4-[(1-methylethyl)sulfonyl]piperazin-1-yl}pyridin-3-yl)-N,N-dimethylbenzamide]
11 | 38% | 3.44 µM | 49% | 0.161 µM |  |  |  | C=Cc1cc(-c2ccc(C(=O)N(C)C)c(Cl)c2)cnc1N1CCN(C(=O)OC(C)(C)C)CC1 [Example 9-2, tert-butyl 4-{5-[3-chloro-4-(dimethylcarbamoyl)phenyl]-3-ethenylpyridin-2-yl}piperazine-1-carboxylate]
12 |  | 0.76 µM |  | 0.034 µM |  | 28% | 79% | CC(C)C(O)(C(=O)N1CCN(c2ncc(-c3cc(Cl)c(C(=O)N(C)C)c(Cl)c3)cc2C#N)CC1)C(F)(F)F (single isomer, unassigned) [Example 7-6, 2,6-dichloro-4-(5-cyano-6-{4-[2-hydroxy-3-methyl-2-(trifluoromethyl)butanoyl]piperazin-1-yl}pyridin-3-yl)-N,N-dimethylbenzamide]
13 | 33% | 1.17 µM | 101% | 0.002 µM |  |  |  | CN(CCn1cncn1)C(=O)c1ccc(-c2cnc(N3CCN(C(=O)[C@](O)(c4ccccc4)C(F)(F)F)CC3)c(C#N)c2)cc1Cl [Example 6-1, 2-chloro-4-(5-cyano-6-{4-[(2R)-3,3,3-trifluoro-2-hydroxy-2-phenylpropanoyl]piperazin-1-yl}pyridin-3-yl)-N-methyl-N-[2-(1H-1,2,4-triazol-yl)ethyl]benzamide]
14 | 62% | 11.1 µM | 97% | 0.109 µM |  |  |  | CCC(C)(C)C(=O)N1CCN(c2ncc(-c3ccc(C(=O)N(C)C)c(Cl)c3)cc2C#N)CC1 [Example 2-5, 2-chloro-4-{5-cyano-6-[4-(2,2-dimethylbutanoyl)piperazin-1-yl]pyridin-3-yl}-N,N-dimethylbenzamide]
15 | 61% | 0.617 µM | 102% | 0.001 µM |  |  |  | CN(C)C(=O)c1ccc(-c2cnc(N3CCN(C(=O)[C@](O)(c4ccccc4)C(F)(F)F)CC3)c(C#N)c2)cc1Cl [Example 2-2, 2-chloro-4-(5-cyano-6-{4-[(2R)-3,3,3-trifluoro-2-hydroxy-2-phenylpropanoyl]piperazin-1-yl}pyridin-3-yl)-N,N-dimethylbenzamide]
16 | 39% | 21.2 µM | 71% | 1.52 µM |  |  |  | CC(C)(C)OC(=O)N1CCN(c2ncc(-c3ccc(C(=O)N4CCC4)c(Cl)c3)cc2C#N)CC1 [Example 5-4, tert-butyl 4-{5-[4-(azetidin-1-ylcarbonyl)-3-chlorophenyl]-3-cyanopyridin-2-yl}piperazine-1-carboxylate]
17 | 30% | 27.9 µM | 77% | 1.06 µM |  |  |  | CN(C)C(=O)c1ccc(-c2cnc(N3CCN(C(=O)[C@H](O)C(F)(F)F)CC3)c(C#N)c2)cc1Cl [Example 2-11, 2-chloro-4-(5-cyano-6-{4-[(2S)-3,3,3-trifluoro-2-hydroxypropanoyl]piperazin-1-yl}pyridin-3-yl)-N,N-dimethylbenzamide]
18 | 52% | 10.5 µM | 93% | 0.2 µM |  |  |  | CN(C)C(=O)c1ccc(-c2cnc(N3CCN(S(=O)(=O)C(F)F)CC3)c(C#N)c2)cc1Cl [Example 1-3, 2-chloro-4-(5-cyano-6-{4-[(difluoromethyl)sulfonyl]piperazin-1-yl}pyridin-3-yl)-N,N-dimethylbenzamide]
19 | 49% | 12.7 µM | 88% | 0.025 µM |  |  |  | CN(C)C(=O)c1ccc(-c2cnc(N3CCN(C(=O)C4(c5ccc(Cl)cc5Cl)CC4)CC3)c(C#N)c2)cc1Cl [Example 2-34, 2-chloro-4-[5-cyano-6-(4-{[1-(2,4-dichlorophenyl)cyclopropyl]carbonyl}piperazin-1-yl)pyridin-3-yl]-N,N-dimethylbenzamide]
20 | 16% |  | 85% | 1.67 µM | No IP |  |  | CN(C)C(=O)c1ccc(-c2ccc(N3CCN(C(=O)c4ccccc4Cl)CC3)cc2)cc1Cl [Example 4-15, 3-chloro-4′-{4-[(2-chlorophenyl)carbonyl]piperazin-1-yl}-N,N-dimethylbiphenyl-4-carboxamide]
21 | 58% | 14.9 µM | 91% | 0.17 µM |  |  |  | CN(CC#N)C(=O)c1ccc(-c2cnc(N3CCN(C(=O)OC(C)(C)C)CC3)c(C#N)c2)cc1Cl [Example 5-8, tert-butyl 4-(5-{3-chloro-4-[(cyanomethyl) (methyl)carbamoyl]phenyl}-3-cyanopyridin-2-yl)piperazine-1-carboxylate]

Row | Compound | Emax [1, 3] | EC50 [1] | Emax [2, 3] | EC50 [2] | LXR alpha IP (nM) [1] | LXR alpha activity at max dose (%) (Emax) [1, 3] | LXR beta activity at max dose (%) (Emax) [2, 3]
22 | CN(C)C(=O)c1ccc(-c2cnc(N3CC4CCC(C3)N4C(=O)OC(C)(C)C)c(C#N)c2)cc1Cl [Example 8-7, tert-butyl 3-{5-[3-chloro-4-(dimethylcarbamoyl)phenyl]-3-cyanopyridin-2-yl}-3,8-diazabicyclo[3.2.1]octane-8-carboxylate] | 52% | 1.64 µM | 71% | 0.031 µM |  |  | 
